Experimental data published in PMC3185582 (Viruses, 2010).
Where two headings read alike, the source gives them in different places.

Assays:
vaccinia virus [1] = format: cell-based
cowpox virus = format: cell-based
[2] = test system: vaccinia virus in BSC-40 cell monolayers; format: cell-based
Vaccinia [3] = details: mouse, in vivo, po, 100 mg/kg
monkeypox virus [4] = test system: monkeypox virus; parameters: species or system cynomolgus macaques; details: cynomolgus monkey, in vivo
variola virus [5] = test system: variola virus; parameters: species or system cynomolgus macaques; details: cynomolgus monkey, in vivo
orthopoxviruses = test system: orthopoxviruses; parameters: species or system mice; details: mouse, in vivo
monkeypox virus [6] = test system: monkeypox virus; parameters: species or system prairie dogs; details: dog, in vivo
vaccinia virus [7] = details: CPE assay; read-out: EC50 for inhibition of viral replication; cited from earlier work
vero and BSC40 cells = details: ST-246 treatment, 50 uM; unpublished work [21]
[8] = methanol, ethanol and acetonitrile
cytochrome P450 (CYP) = details: 10 μM (3,700 ng/mL)
[9] = rat, mouse and dog microsomes
[10] = monkey or human microsomes
[11] = not given; remark: listed apart in the source
[12] = for increase in AUC values (accumulation): 28 day repeat dose study
ectromelia virus = details: read-out: EC50 for inhibition of viral replication; cited from earlier work
[13] = mouse, in vivo
[14] = single oral dose, tidal volume
[15] = top dose 2000 mg/kg
[16] = 12 daily doses of 300 mg/kg
[17] = 300 mg/kg, repeat dose studies
[18] = not given; remark: listed apart in the source
unrelated viruses = details: read-out: EC50 for inhibition of viral replication; cited from earlier work
[19] = mouse, in vivo; remark: listed apart in the source
[20] = not given; remark: listed apart in the source
[21] = not given; remark: listed apart in the source
[22] = test system: monkeypox virus clinical isolates; details: cited from earlier work
[23] = test system: variola virus clinical isolates; details: cited from earlier work
[24] = test system: vaccinia virus in BSC-40 cell monolayers; details: 10 μM, 5 pfu/cell; ref Chen et al. [48]; cited from earlier work
p37 with Rab9 and TIP47 = details: cited from earlier work
Vaccinia [25] = details: mouse, in vivo, cited from earlier work
Cowpox = details: mouse, in vivo, cited from earlier work
Ectromelia = details: mouse, in vivo, cited from earlier work
Monkeypox = details: in vivo, cited from earlier work
Rabbitpox = details: rabbit, in vivo, cited from earlier work
monkeypox virus [26] = details: cynomolgus monkey, in vivo, cited from earlier work
variola virus [27] = details: cynomolgus monkey, in vivo, cited from earlier work
poxvirus = details: mouse, in vivo; cited from earlier work
in vivo [28] = details: BALB/c, mouse, 30 mg/kg
in vivo [29] = details: Sprague-Dawley, rat, po, 30 mg/kg
in vivo [30] = details: cynomolgus monkey
in vivo [31] = details: dog
in vivo [32] = details: BALB/c, mouse
in vivo [33] = details: both, cynomolgus, monkey
CYP1A2 = CYP1A2 (Homo sapiens, UniProt P05177); assay: in vitro
Sequence of CYP1A2 (P05177 whole entry): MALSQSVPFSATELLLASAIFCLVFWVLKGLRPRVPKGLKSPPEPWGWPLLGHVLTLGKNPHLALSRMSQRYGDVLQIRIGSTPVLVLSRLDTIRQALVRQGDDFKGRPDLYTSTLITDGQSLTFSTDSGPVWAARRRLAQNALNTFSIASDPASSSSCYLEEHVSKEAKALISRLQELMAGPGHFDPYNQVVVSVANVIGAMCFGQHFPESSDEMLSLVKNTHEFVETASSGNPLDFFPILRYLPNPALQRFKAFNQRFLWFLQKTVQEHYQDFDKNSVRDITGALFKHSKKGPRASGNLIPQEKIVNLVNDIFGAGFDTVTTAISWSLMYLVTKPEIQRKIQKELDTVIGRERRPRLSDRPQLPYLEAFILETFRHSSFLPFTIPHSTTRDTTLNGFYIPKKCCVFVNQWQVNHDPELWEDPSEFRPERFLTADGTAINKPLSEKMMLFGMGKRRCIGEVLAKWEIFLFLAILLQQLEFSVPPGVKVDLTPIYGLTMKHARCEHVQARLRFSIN

CYP2B6 = CYP2B6 (Homo sapiens, UniProt P20813); assay: in vitro
Sequence of CYP2B6 (P20813 whole entry): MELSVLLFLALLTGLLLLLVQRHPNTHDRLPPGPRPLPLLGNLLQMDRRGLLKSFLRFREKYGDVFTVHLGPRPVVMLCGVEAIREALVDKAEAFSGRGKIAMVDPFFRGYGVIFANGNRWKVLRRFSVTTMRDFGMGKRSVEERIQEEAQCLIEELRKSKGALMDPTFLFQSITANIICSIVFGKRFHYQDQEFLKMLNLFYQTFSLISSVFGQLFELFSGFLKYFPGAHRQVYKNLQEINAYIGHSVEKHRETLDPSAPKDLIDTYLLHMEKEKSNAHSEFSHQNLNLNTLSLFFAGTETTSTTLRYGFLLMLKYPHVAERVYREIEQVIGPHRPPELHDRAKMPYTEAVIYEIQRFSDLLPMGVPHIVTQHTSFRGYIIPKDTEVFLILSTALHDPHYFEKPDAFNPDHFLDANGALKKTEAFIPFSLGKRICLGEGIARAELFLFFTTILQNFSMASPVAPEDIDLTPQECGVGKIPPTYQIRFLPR

CYP2C8 = CYP2C8 (Homo sapiens, UniProt P10632); assay: in vitro
Sequence of CYP2C8 (P10632 whole entry): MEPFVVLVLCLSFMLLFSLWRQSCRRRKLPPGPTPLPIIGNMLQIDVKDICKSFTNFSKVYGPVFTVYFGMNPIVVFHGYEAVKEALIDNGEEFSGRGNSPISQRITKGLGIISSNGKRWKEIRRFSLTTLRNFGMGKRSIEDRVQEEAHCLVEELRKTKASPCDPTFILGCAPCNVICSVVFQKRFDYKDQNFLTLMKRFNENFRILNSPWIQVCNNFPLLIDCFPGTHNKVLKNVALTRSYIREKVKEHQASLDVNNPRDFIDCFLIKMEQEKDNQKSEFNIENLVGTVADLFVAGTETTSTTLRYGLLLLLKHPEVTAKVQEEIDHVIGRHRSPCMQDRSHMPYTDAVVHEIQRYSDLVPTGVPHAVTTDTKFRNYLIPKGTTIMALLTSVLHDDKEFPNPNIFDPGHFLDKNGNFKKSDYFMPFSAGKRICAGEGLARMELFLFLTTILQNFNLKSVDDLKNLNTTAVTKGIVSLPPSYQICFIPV

CYP2C19 = CYP2C19 (Homo sapiens, UniProt P33261); assay: in vitro
Sequence of CYP2C19 (P33261 whole entry): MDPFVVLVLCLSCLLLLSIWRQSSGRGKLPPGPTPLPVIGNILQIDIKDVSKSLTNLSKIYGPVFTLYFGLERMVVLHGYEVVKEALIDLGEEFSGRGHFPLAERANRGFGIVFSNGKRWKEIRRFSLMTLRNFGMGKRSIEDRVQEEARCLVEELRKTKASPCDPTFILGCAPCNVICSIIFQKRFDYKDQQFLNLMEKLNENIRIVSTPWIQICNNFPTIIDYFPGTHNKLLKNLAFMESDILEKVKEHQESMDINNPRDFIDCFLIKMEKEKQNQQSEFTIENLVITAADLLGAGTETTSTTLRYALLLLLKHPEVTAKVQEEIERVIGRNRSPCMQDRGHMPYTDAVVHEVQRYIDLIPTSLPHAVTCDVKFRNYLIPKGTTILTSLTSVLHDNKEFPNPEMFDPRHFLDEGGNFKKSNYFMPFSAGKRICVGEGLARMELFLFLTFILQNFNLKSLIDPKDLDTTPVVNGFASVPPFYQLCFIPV

CYP2E1 = CYP2E1 (Homo sapiens, UniProt P05181); assay: in vitro
Sequence of CYP2E1 (P05181 whole entry): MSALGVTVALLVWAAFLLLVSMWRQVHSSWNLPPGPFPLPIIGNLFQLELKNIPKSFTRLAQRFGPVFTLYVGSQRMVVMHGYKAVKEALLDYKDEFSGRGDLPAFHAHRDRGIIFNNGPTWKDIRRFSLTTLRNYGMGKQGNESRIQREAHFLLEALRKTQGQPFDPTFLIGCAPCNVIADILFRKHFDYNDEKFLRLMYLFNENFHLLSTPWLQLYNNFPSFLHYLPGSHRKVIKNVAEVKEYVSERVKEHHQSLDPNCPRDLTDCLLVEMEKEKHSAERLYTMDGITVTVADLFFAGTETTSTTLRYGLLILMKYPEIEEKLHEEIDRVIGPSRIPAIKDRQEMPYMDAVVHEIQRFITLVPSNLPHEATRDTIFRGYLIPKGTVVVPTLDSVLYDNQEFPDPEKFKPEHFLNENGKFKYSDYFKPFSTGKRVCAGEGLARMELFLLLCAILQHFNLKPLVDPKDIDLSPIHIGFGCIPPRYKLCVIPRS

[34] = test system: selected cell lines from mouse, rabbit, monkey, and humans; details: cited from earlier work
[35] = by 96 hours after oral administration

O=C(NN1C(=O)C2C3C=CC(C4CC34)C2C1=O)c1ccc([N+](=O)[O-])cc1 (centres unmarked) [4-nitrophenyl]
fold more potent than the 4-dimethylaminophenyl analog (vaccinia virus [1]): 100 fold
fold more potent than the 4-dimethylaminophenyl analog (cowpox virus): 100 fold

O=C(NN1C(=O)[C@@H]2[C@@H]3C=C[C@@H]([C@H]4C[C@@H]34)[C@@H]2C1=O)c1ccc(C(F)(F)F)cc1 [ST-246, Tecovirimat]
plaque formation [2]: inhibits
protection from systemic disease (Vaccinia [3]): protects mice from systemic disease
protection from lethal infection (monkeypox virus [4]): protected animals from lethal infection
protection from lethal infection, latest administration (monkeypox virus [4]): as late as five days post-inoculation
lesion numbers compared to placebo-treated animals (variola virus [5]): reduced lesion numbers
latest treatment initiation for full protection (orthopoxviruses): ≤ 72 hours post-infection
optimal dosing period (orthopoxviruses; 100 mg/kg): greater than seven days
optimal once per day oral dose for protective efficacy (orthopoxviruses; po): 100 mg/kg
protection from death (monkeypox virus [6]): 100%
EC50 (vaccinia virus [7]): 10 nM
growth of cells (vero and BSC40 cells): not affected
solubility in organic solvents [8]: very soluble
Caco-2 membrane permeability (Caco-2): good
plasma protein binding: moderate to high
metabolism by cytochrome P450 isozymes (cytochrome P450 isozymes): not metabolized to any significant degree
cytochrome P450 (CYP) induction (cytochrome P450 (CYP)): no significant
CYP induction (CYP 2B6): induction was observed
CYP induction (CYP 2C19): induction was observed
cleavage liberating 4-trifluoromethylbenzoic acid [9]: small amounts of ST-246 were cleaved
cleavage metabolites [10]: not seen
time to nearly complete elimination of radioactivity ([11]; after oral administration): ≤ 96 h
radioactivity eliminated in the urine [11, 35]: 24%
radioactivity eliminated through the feces [11, 35]: approximately 72%
increase in AUC values (accumulation) ([12]; 1000 mg/kg): approximately 25%
increase in AUC values (accumulation) ([12]; 2000 mg/kg): approximately 50%
terminal elimination half-life ([12]; once a day dosing): approximately four
EC50 (ectromelia virus): 70 nM
genotoxicity (bacterial): not genotoxic
genotoxicity (mammalian cell): not genotoxic
chromosomal damage or bone marrow toxicity [13]: did not cause
no observable effect level (NOEL) [14]: 2000 mg/kg
behavioral or other functional changes [15]: did not elicit any
electroencephalograms and seizure thresholds [16]: no evidence of altered electroencephalograms or lowered seizure thresholds
QTc [17]: no prolongation
clinical observations ([18]; 300 mg/kg): ataxia was observed four hours post dose in one female NHP
NOEL ([18]; 3 Month study): 300 mg/kg
NOEL ([18]; 28 Day repeat dose study): 300 mg/kg
multiple-dose NOEL ([18]; monkey): 300 mg/kg/day
clinical observations ([18]; single dose 1000 mg/kg): This was also observed
clinical observations ([18]; single oral dose 2000 mg/kg, male and female): decreased activity and ataxia
EC50 (unrelated viruses): > 40000 nM
fertility, fetal resorptions, fetal abnormalities or toxicity [19]: no evidence
maternal toxicity ([20]; Segment II study, highest dose 100 mg/kg): some maternal toxicity
fertility, fetal resorptions, fetal abnormalities or toxicity ([20]; rabbit, in vivo): no evidence
radiolabel in the milk ([21]; nursing dams): < 1%
radiolabel in the placenta ([21]; pregnant mice): only very low levels
inhibition of clinical isolates in cell culture [22]: inhibited
inhibition of clinical isolates in cell culture [23]: inhibited
extracellular virus (CEV and EEV) formation [24]: inhibits
interaction of p37 with Rab9 and TIP47 (p37 with Rab9 and TIP47): blocks
Optimal oral dose mg/kg, s.i.d. (Vaccinia [25]; po): 100 mg/kg
Optimal dose duration (Vaccinia [25]): >5 days (100%]
Optimal dose duration (% efficacy) (Vaccinia [25]): >5 days (100%]
Optimal oral dose mg/kg, s.i.d. (Cowpox; po): 100 mg/kg
Optimal dose duration (Cowpox): >7 days (93%]
Optimal dose duration (% efficacy) (Cowpox): >7 days (93%]
Time of treatment (Cowpox): 48 h.p.i. (93%)
Time of treatment (% efficacy) (Cowpox): 48 h.p.i. (93%)
Optimal oral dose mg/kg, s.i.d. (Ectromelia; po): 100 mg/kg
Optimal dose duration (Ectromelia): >5 days (100%)
Optimal dose duration (% efficacy) (Ectromelia): >5 days (100%)
Time of treatment (Ectromelia): 72 h.p.i. (100%)
Time of treatment (% efficacy) (Ectromelia): 72 h.p.i. (100%)
Optimal oral dose mg/kg, s.i.d. (Monkeypox; po): 100 mg/kg
Time of treatment (Monkeypox): 72 h.p.i. (100%)
Time of treatment (% efficacy) (Monkeypox): 72 h.p.i. (100%)
Optimal oral dose mg/kg, s.i.d. (Rabbitpox; po): 40 mg/kg
Time of treatment (Rabbitpox): 48 h.p.i. (100%)
Time of treatment (% efficacy) (Rabbitpox): 48 h.p.i. (100%)
Optimal oral dose mg/kg, s.i.d. (monkeypox virus [26]; po): 3 mg/kg
Time of treatment (monkeypox virus [26]): 96h.p.i. (100%)
Time of treatment (% efficacy) (monkeypox virus [26]): 96h.p.i. (100%)
protection from death (monkeypox virus [26]): 100%
protection from lethal infection (monkeypox virus [26]): 100%
Optimal oral dose mg/kg, s.i.d. (variola virus [27]; po): 10 mg/kg
Time of treatment (variola virus [27]): 24 h.p.i. (100%)
Time of treatment (% efficacy) (variola virus [27]): 24 h.p.i. (100%)
protection from lethal infection (poxvirus): protect
bioavailability (in vivo [28]): ~40%
bioavailability (in vivo [29]; female): 33%
bioavailability (in vivo [29]; male): 90%
clearance (in vivo [30]; both, iv, 1 mg/kg): ~18.3 mL/min/kg
bioavailability (in vivo [30]; fasted): ~25%
bioavailability (in vivo [30]; fed state): ~50%
MTD (in vivo [31]): 30 mg/kg
NOAEL at 3 months (in vivo [32]; 1000 mg/kg): 1000 mg/kg
MTD (in vivo [32]; 2000 mg/kg): 2000 mg/kg
MTD at 28 days (in vivo [32]; 2000 mg/kg): 2000 mg/kg
NOAEL at 28 days (in vivo [32]; 2000 mg/kg): 2000 mg/kg
NOAEL (in vivo [33]): 2000 mg/kg
inhibition at 300 µM (CYP1A2): < 50%
inhibition at 300 µM (CYP2B6): < 50%
inhibition at 300 µM (CYP2C8): < 50%
inhibition at 300 µM (CYP2C19): < 50%
inhibition at 300 µM (CYP2E1): < 50%
CC50 [34]: > 50000 nM
